In article PMC8466781, “Evaluation of Synthetic 2,4-Disubstituted-benzo[g]quinoxaline Derivatives as Potential Anticancer Agents” (Pharmaceuticals, 2021):

Key:
[1] = test system: breast MCF-7 cancer cell line; experiment: MTT cytotoxicity assay against breast MCF-7 cancer cell line; assay type: cell-based; conditions: Homo sapiens, MCF7, 24 h treatment, mean ± SD, n = 3 experiments, read-out: IC50 (μM) MCF-7, in vitro cytotoxic activity
Description: The effect of the prepared benzo[g]quinoxaline derivatives 2–9 on the viability of breast MCF-7 cancer cell line was studied using MTT assay. The cytotoxicity was assessed using Dox as positive reference drug.
Antitumor activity of the newly prepared benzo[g]quinoxaline derivatives 2–9 were carried out against breast MCF-7 cancer cell line using MTT assay method. Cells at density of 1 × 10^4 were seeded in 96-well plate at 37 °C for 48 h under 5% CO2. After incubation, the cells were treated with different concentration of the prepared molecules and incubated for 24 h. MTT dye was added at the end of 24 h of drug treatment and incubated for 4 h at 37 °C. 100 µL of dimethyl sulphoxide was added to each well to dissolve the purple formazan formed. The color intensity of the formazan product, which represents the growth condition of the cells, was quantified using an ELISA plate reader at 570 nm. The experimental conditions were carried out with at least three replicates and the experiments were repeated at least three times.

topoisomerase IIβ = biological target: T1, topoisomerase IIβ (Homo sapiens, UniProt Q02880); experiment: Topoisomerase IIβ enzyme inhibition assay (Human DNA topo IIβ ELISA Kit # MBS942146); assay type: biochemical
T1 construct: purchased MBS942146
T1 sequence (Q02880 whole entry): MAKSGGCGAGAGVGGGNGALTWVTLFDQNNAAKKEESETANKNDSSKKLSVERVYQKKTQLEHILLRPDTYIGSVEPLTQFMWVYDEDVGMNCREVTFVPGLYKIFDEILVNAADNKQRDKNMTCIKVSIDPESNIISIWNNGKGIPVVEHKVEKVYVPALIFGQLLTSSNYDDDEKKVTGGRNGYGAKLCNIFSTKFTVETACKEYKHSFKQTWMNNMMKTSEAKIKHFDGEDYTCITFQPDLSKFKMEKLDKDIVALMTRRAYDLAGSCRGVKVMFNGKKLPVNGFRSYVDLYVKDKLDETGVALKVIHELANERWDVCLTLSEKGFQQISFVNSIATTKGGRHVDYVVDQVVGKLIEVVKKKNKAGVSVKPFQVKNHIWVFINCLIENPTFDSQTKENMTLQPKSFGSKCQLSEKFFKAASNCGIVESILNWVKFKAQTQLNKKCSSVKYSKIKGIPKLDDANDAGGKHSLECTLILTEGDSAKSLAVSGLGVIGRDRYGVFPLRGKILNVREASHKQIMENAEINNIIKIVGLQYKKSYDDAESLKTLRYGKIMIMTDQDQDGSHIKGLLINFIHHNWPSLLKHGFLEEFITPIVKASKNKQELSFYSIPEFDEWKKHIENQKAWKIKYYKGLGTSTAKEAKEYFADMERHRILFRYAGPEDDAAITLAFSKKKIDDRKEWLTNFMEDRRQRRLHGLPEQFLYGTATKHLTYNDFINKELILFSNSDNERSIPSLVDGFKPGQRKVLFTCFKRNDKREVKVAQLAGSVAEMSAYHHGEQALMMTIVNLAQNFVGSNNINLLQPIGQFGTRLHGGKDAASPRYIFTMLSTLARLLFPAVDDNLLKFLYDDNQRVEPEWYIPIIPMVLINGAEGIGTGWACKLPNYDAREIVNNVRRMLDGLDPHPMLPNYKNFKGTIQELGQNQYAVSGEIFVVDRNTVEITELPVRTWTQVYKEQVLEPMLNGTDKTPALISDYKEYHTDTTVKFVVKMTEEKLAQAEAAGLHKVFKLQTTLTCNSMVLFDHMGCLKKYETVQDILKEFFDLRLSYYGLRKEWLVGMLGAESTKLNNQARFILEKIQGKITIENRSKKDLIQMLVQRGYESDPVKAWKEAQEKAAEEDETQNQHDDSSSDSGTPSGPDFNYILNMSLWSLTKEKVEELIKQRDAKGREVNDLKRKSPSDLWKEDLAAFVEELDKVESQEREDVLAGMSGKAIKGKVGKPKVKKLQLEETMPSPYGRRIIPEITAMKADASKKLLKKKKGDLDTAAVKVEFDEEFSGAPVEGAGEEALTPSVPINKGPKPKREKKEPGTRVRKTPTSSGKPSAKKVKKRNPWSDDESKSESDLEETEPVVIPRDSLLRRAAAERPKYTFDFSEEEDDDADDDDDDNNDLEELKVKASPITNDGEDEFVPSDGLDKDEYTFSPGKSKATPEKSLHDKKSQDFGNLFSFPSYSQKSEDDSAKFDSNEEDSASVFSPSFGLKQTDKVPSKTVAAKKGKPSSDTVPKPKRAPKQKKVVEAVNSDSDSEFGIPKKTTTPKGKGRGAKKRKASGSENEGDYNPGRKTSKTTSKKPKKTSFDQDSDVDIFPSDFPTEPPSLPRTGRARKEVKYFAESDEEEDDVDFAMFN
Description: To obtain a further insight into the mechanism of cell proliferation inhibition activity, benzo[g]quinoxaline molecule 3 was investigated for topoisomerase IIβ (topo IIβ) inhibitory activity using the Human DNA topo IIβ ELISA Kit # MBS942146.
Compound 3 and Dox were evaluated against topoisomerase IIβ for their inhibitory concentration (µM) using four doses concentration according to manufacturer’s instructions.
Figure 3 Graphical representation for comparison of topo IIβ IC50 of compound 3 and Dox; topo II was performed using four doses protocol for compound 3 and Dox, and the concentration that induced 50% maximum inhibition of topo II was determined from sigmoidal dose–response. Data are expressed as the mean ± SD (n = 3 experiments) and statistical comparisons were carried out using one-way analysis of variance (ANOVA) followed by Tukey’s multiple comparison test (** p < 0.01). **-Significant.

MCF-7 cells [2] = experiment: Cell cycle analysis by DNA flow cytometry (PI staining); assay type: cell-based; conditions: MCF-7, compound at IC50 (2.89 µM), 48 h; untreated control 2.41%
Description: Compound 3 was tested at its IC50 concentration dose value.
MCF-7 cells (2 × 10^5/well) were harvested and washed twice in PBS. After that, cells were incubated at 37 °C and 5% CO2. The medium was replaced with (DMSO 1% v/v) containing the tested compound, then incubated for 48 h, washed twice in PBS, fixed with 70% ethanol, rinsed again with PBS, and then stained with DNA fluorochrome PI for 15 min at 37 °C. DNA content was analyzed by flow cytometry on a FACS Calibur flow cytometer (Becton and Dickinson, Heidelberg, Germany).
Figure 4 (A) Graphical representation of percentages of cells in pre-G1, G1, G2/M, and S cell cycle phase in MCF-7 cells treated with compound 3 (2.89 µM) for 48 h. (B) Effect of compound 3 (2.89 µM) on cell cycle distribution in MCF-7 cells for 48 h and analyzed by flow cytometry after staining with DNA fluorochrome propidium iodide; most of the compound 3 treated cells were in pre-G1 phase (apoptosis). Data are expressed as the mean ± SD (n = 3 experiments) and statistical comparisons were carried out using one-way analysis of variance (ANOVA) followed by Tukey’s multiple comparison test (*** p < 0.001). ***-Highly significant. […]

MCF-7 cells [3] = experiment: Annexin V-FITC/PI apoptosis staining assay (flow cytometry); assay type: cell-based; conditions: MCF-7, compound at IC50 concentration, 48 h
Description: Apoptosis staining assay was performed to detect the effect of compound 3 on the percentage of early and late apoptosis in the breast MCF-7 cancer cell line. […] Therefore, compound 3 can be considered an apoptosis inducer in the breast MCF-7 cell line.
Apoptosis in MCF-7 cells was investigated using fluorescent Annexin V-FITC/PI detection kit by flow cytometry assay. Briefly, MCF-7 cells (2 × 10^5) after incubation for 12 h. Cells were treated with compound 3 at its IC50 concentration for 48 h, then the cells were harvested and stained with Annexin V-FITC/PI dye for 15 min in the dark at 37 °C. Flow cytometry analyses were performed using FACS Calibur flow cytometer (Becton and Dickinson, Heidelberg, Germany).
Figure 5 (A) Graphical representation of the effect of compound 3 on induction of apoptosis in MCF-7 cell line. (B) Effect of compound 3 on induction of apoptosis in MCF-7 cell line. Data are expressed as the mean ± SD (n = 3 experiments) and statistical comparisons were carried out using one-way analysis of variance (ANOVA) followed by Tukey’s multiple comparison test (** p < 0.01, and *** p < 0.001). […] The Comp 3 values are given in the order upper left, upper right, lower right, with no measure name. / The Control MCF-7 plot prints 1.51%, 0.13% and 0.77%. These are left out because the untreated control is not a substance.

Bax = experiment: ELISA measurement of Bax level in MCF-7 cells; assay type: cell-based; conditions: MCF-7 cells treated at IC50 (2.89 µM)
Description: (§1) In order to investigate the molecular pathway involved in apoptosis, compound 3 was screened for its ability to activate pro-apoptotic protein; Bax and downregulate anti-apoptotic protein; Bcl2 [31]. The MCF-7 cancer cell line was treated with compound 3 at its IC50 value (µM) and the level of expression of proteins involved in apoptosis was quantized using ELISA assay. […] Therefore, it can be concluded that compound 3 can induce the intrinsic pathway of apoptosis by activation of Bax and downregulation of Bcl2.
(§2) The levels of the apoptotic marker Bax, Bcl-2, and Fas/Fas-l were assessed using ELISA kit. The procedure of the used kits was completed according to the manufacturer’s instructions. Briefly, cell lysates were prepared from control and MCF-7 cells (2.5 × 10^5) treated with IC50 concentration of compound 3. Then, equal amounts of cell lysates were loaded then probed with specific antibodies. The samples were measured at 450 nm in ROBONEK P2000 ELISA reader. All experiments were performed in duplicate.
(§3) Figure 6 Effect of compound 3 on apoptosis related proteins, Bax, Bcl2, and Fas/Fas-L in MCF-7 cells. […] Data was expressed as mean ± SD (n = 3 experiments) and statistical comparisons were carried out using one-way analysis of variance (ANOVA) followed by Tukey’s multiple comparison test (*** p < 0.001).

Bcl2 = experiment: ELISA measurement of Bcl2 level in MCF-7 cells; assay type: cell-based; conditions: MCF-7 cells treated at IC50 (2.89 µM)
Description: as §1, §2, §3

SMILES: CC(=O)N1CC(c2ccc(Cl)cc2)=Nc2c1c(Br)c1ccccc1c2Br [Compound 9, 1-(5,10-Dibromo-3-(4-chlorophenyl)benzo[g]quinoxalin-1(2H)-yl)ethanone]
- IC50 [1]: 8.84 ± 0.36 µM
- melting point: 205 to 207 °C

SMILES: Nc1c(NCC(=O)c2ccc(Cl)cc2)c(Br)c2ccccc2c1Br [Compound 8, 2-(3-Amino-1,4-dibromonaphthalen-2-ylamino)-1-(4-chlorophenyl)ethanone]
- melting point: 225 to 227 °C

SMILES: COc1cccc2c1C(=O)c1c(O)c3c(c(O)c1C2=O)C[C@@](O)(C(=O)CO)C[C@@H]3O[C@H]1C[C@H](N)[C@H](O)[C@H](C)O1 [Dox, Doxorubicin, reference compound]
- IC50 [1]: 2.01 ± 0.01 µM
- IC50 (topoisomerase IIβ): 3.31 µM

SMILES: Clc1ccc(C2=Nc3cc4ccccc4cc3NC2)cc1 [Compound 2, 3-(4-Chlorophenyl)-1,2-dihydrobenzo[g]quinoxaline]
- IC50 [1]: 17.2 ± 0.69 µM
- melting point: 195 to 197 °C

SMILES: CC(=O)N1C=C(c2ccc(Cl)cc2)Nc2cc3ccccc3cc21 [Compound 4, 1-(3-(4-Chlorophenyl)benzo[g]quinoxalin-1(4H)-yl)ethanone]
- IC50 [1]: 16.2 ± 0.58 µM
- melting point: 171 to 173 °C

SMILES: CCOC(=O)C(C#N)=C(c1ccc(O)c(OC)c1)N1C=C(c2ccc(Cl)cc2)Nc2cc3ccccc3cc21 [Compound 5, Ethyl 3-(3-(4-Chlorophenyl)benzo[g]quinoxalin-1(4H)-yl)-2-cyano-3-(4-hydroxy-3-methoxyphenyl)acrylate]
- IC50 [1]: 32.1 ± 1.11 µM
- melting point: 146 to 148 °C

SMILES: Clc1ccc(-c2cnc3cc4ccccc4cc3n2)cc1 [Compound 3, 2-(4-Chlorophenyl)benzo[g]quinoxaline]
- IC50 [1]: 2.89 ± 0.11 µM
- percentage of cells at the pre-G1 phase (MCF-7 cells [2]): 38.24%
- apoptosis percentage at late stage (upper right quadrant) (MCF-7 cells [3]; untreated control 0.13%): 21.38%
- apoptosis percentage at the early stage (lower right quadrant) (MCF-7 cells [3]; untreated control 0.77%): 1.59%
- increase of Bax expression compared with untreated control (Bax): 3.89 fold
- downregulation of Bcl2 compared with untreated control (Bcl2): 4.35 fold
- melting point: 168 to 170 °C
